26 compounds from patent EP3782997A1, “FUSED PYRIMIDINE COMPOUNDS AND PHARMACEUTICAL COMPOSITIONS THEREOF FOR THE TREATMENT OF FIBROTIC DISEASES” (Galapagos N.V., priority 2019, dated 2021) can be followed below.

The experiment has as its target hENPP2 (Homo sapiens, UniProt Q13822). Description: Human ENPP2 (hENPP2) biochemical assay using LPC as substrate. Particulars: 150 µM LPC (palmitoyl 16:0), 37°C for 30 min. The procedure:
The principle of the assay conswasts in quantifying the released choline with an enzymatic method using choline oxidase and peroxidase. Choline oxydation by choline oxydase releases betaine and peroxide. The latter was quantified in presence of HRP that converts the peroxide detection agent TOOS (CAS# 82692-93-1) and 4-aminoantipyrine into quinoneimine dye. The appearance of quinoneimine dye was measured spectrophotometrically at 555 nm and was proportional to the amount of choline released by ENPP2. Inhibition of ENPP2 results in a decrease of the signal.
Compound IC50 values were determined in a hENPP2 (UniProtKB/SwwassProt Sequence ref Q13822) biochemical assay using LPC as substrate.
5 µL of a dilution series of compound, starting from 50 µM highest concentration, 1/3 dilution, was added to the wells. hENPP2 was used at a final concentration of 1 µg/mL or 3 µg/mL (it will be appreciated by the skilled person that the potency read out was independent of the enzyme concentration). The enzyme was diluted in 50 mM Trwas-HCl pH 8.5, 500 mM NaCl, 5 mM KCl, 10 mM CaCl2, 0.1% fatty acid free BSA in a total volume of 10 µL. The reaction was started by the addition of 10 µL of 150 µM LPC (palmitoyl 16:0; Avanti Polar Lipids, Inc., Cat# 855675) diluted in the same buffer as described above and the mixture was incubated at 37°C for 30 min. The reaction was terminated and choline quantified by the addition of a 25 µL of a mixture containing 0.6 U/mL of choline oxidase, 0.6 U/mL of peroxydase, 1.8 mM TOOS, 1.2 mM amino-antipyrine, 20 mM EGTA (stop-developer solution) diluted in the buffer described above. […] was read on an Envision plate reader (PerkinElmer, Inc.) after an incubation of 30 min at room temperature (excitation 555 nm).
In the case of `COC(=O)[C@H]1CN(C(=O)c2ccc3[nH]nnc3c2)CC[C@H]1N1Cc2cnc(Nc3cc(C)cc(C)c3)nc2C1` (racemic) [Cpd 137, methyl (3S,4R/3R,4S)-1-(1H-benzotriazole-5-carbonyl)-4-[2-(3,5-dimethylanilino)-5,7-dihydropyrrolo[3,4-d]pyrimidin-6-yl]piperidine-3-carboxylate], the IC50 is 0.01 to 100 nM.
As for `Cc1cc(C)cc(Nc2ncc3c(n2)CN(C2CCN(C(=O)c4ccc5[nH]nnc5c4)C(C)C2)C3)c1` (racemic) [compound 34, 1H-benzotriazol-5-yl-[(2S,4S/2R,4R)-4-[2-(3,5-dimethylanilino)-5,7-dihydropyrrolo[3,4-d]pyrimidin-6-yl]-2-methyl-1-piperidyl]methanone], the figure is 0.01 to 100 nM.
Turning to `Cc1cc(C)cc(Nc2ncc3c(n2)CN([C@H]2CCN(C(=O)c4ccc5[nH]nnc5c4)C[C@@H]2C)C3)c1` (racemic) [compound 99, 1H-benzotriazol-5-yl-[(3S,4S/3R,4R)-4-[2-(3,5-dimethylanilino)-5,7-dihydropyrrolo[3,4-d]pyrimidin-6-yl]-3-methyl-1-piperidyl]methanone], the IC50 lay within 0.01 to 100 nM.
The compound `Cc1cc(C)cc(Nc2ncc3c(n2)CN([C@@H]2CN(C(=O)c4ccc5[nH]nnc5c4)C[C@@H]2F)C3)c1` (racemic) [compound 102, 1H-benzotriazol-5-yl-[(3R,4S/3S,4R)-3-[2-(3,5-dimethylanilino)-5,7-dihydropyrrolo[3,4-d]pyrimidin-6-yl] -4-fluoro-pyrrolidin-1-yl]methanone] registered a half-inhibitory concentration (IC50) of 500 to 1000 nM.
As for `Cc1cc(C)cc(Nc2ncc3c(n2)CCN([C@H]2CN(C(=O)c4ccc5[nH]nnc5c4)C[C@H]2F)C3)c1` (racemic) [compound 103, 1H-benzotriazol-5-yl-[(3S,4R/3R,4S)-3-[2-(3,5-dimethylanilino)-7,8-dihydro-5H-pyrido[4,3-d]pyrimidin-6-yl] -4-fluoro-pyrrolidin-1-yl]methanone], the figure is 0.01 to 100 nM.
As to `COc1cc2[nH]nnc2cc1C(=O)N1CC[C@H](N2Cc3cnc(Nc4cc(C)cc(C)c4)nc3C2)[C@H](C)C1` (racemic) [compound 119, [(3R,4S/3S,4R)-4-[2-(3,5-dimethylanilino)-5,7-dihydropyrrolo[3,4-d]pyrimidin-6-yl]-3-methyl-1-piperidyl]-(6-methoxy-1H-benzotriazol-5-yl)methanone], the IC50 lay within 0.01 to 100 nM.
To `Cc1cc(C)cc(Nc2ncc3c(n2)CN([C@H]2CCN(C(=O)c4cc5nn[nH]c5cc4F)C[C@H]2C)C3)c1` (racemic) [compound 148, [(3R,4S/3S,4R)-4-[2-(3,5-dimethylanilino)-5,7-dihydropyrrolo[3,4-d]pyrimidin-6-yl]-3-methyl-1-piperidyl]-(6-fluoro-1H-benzotriazol-5-yl)methanone] belongs 0.01 to 100 nM; to `Cc1cc(C)cc(Nc2ncc3c(n2)CN([C@H]2CCN(C(=O)c4ccnc(NS(C)(=O)=O)c4)C[C@H]2C)C3)c1` (racemic) [compound 167, N-[4-[(3R,4S/3S,4R)-4-[2-(3,5-dimethylanilino)-5,7-dihydropyrrolo[3,4-d]pyrimidin-6-yl]-3-methyl-piperidine-1-carbonyl]-2-pyridyl]methanesulfonamide], 0.01 to 100 nM.
`Cc1cc(C)cc(Nc2ncc3c(n2)CN([C@H]2CCN(C(=O)c4c[nH]nn4)C[C@H]2C)C3)c1` (racemic) [compound 172, [(3R,4S/3S,4R)-4-[2-(3,5-dimethylanilino)-5,7-dihydropyrrolo[3,4-d]pyrimidin-6-yl]-3-methyl-1-piperidyl]-(1H-triazol-4-yl)methanone] showed an IC50 of 0.01 to 100 nM.
To `Cc1cc(C)cc(Nc2ncc3c(n2)CN(C2CCN(C(=O)c4ccc5[nH]nnc5c4)CC2O)C3)c1` (single isomer, unassigned) [Cpd 110, 1H-benzotriazol-5-yl-[4-[2-(3,5-dimethylanilino)-5,7-dihydropyrrolo[3,4-d]pyrimidin-6-yl]-3-hydroxy-1-piperidyl]methanone] belongs 0.01 to 100 nM; to `Cc1cc(C)cc(Nc2ncc3c(n2)CN(C2CN(C(=O)c4ccc5[nH]nnc5c4)CCC2O)C3)c1` (single isomer, unassigned) [Cpd 111, 1H-benzotriazol-5-yl-[3-[2-(3,5-dimethylanilino)-5,7-dihydropyrrolo[3,4-d]pyrimidin-6-yl]-4-hydroxy-1-piperidyl]methanone], 500 to 1000 nM; to `COC(=O)[C@H]1CN(C(=O)c2ccc3[nH]nnc3c2)CC[C@@H]1N1Cc2cnc(Nc3cc(C)cc(C)c3)nc2C1` (single isomer, unassigned) [Cpd 136], 0.01 to 100 nM.
As for `CCOc1cc2[nH]nnc2cc1C(=O)N1CC[C@H](N2Cc3cnc(Nc4cc(C)cc(C)c4)nc3C2)C[C@H]1C` (single isomer, unassigned) [Cpd 138], the IC50 is 0.01 to 100 nM.
In turn, `CCOc1cc2[nH]nnc2cc1C(=O)N1CC[C@@H](N2Cc3cnc(Nc4cc(C)cc(C)c4)nc3C2)C[C@H]1C` (single isomer, unassigned) [Cpd 139] registered an IC50 of 0.01 to 100 nM.
As for `C[C@@H]1C[C@@H](N2Cc3cnc(Nc4ccc(OC(F)(F)F)cc4)nc3C2)CCN1C(=O)c1ccc2[nH]nnc2c1` (single isomer, unassigned) [Cpd 164], the figure is 0.01 to 100 nM.
On to `C[C@@H]1C[C@H](N2Cc3cnc(Nc4ccc(OC(F)(F)F)cc4)nc3C2)CCN1C(=O)c1ccc2[nH]nnc2c1` (single isomer, unassigned) [Cpd 169], for which the IC50 was in the range of 0.01 to 100 nM.
To `Cc1cc(C)cc(Nc2ncc3c(n2)CCN(C2CN(C(=O)c4ccc5[nH]c(=O)oc5c4)C2)C3)c1` [Cpd 1, 6-[3-[2-(3,S-dimethylanilino)-7,8-dihydro-5H-pyrido[4,3-d]pyrimidin-6-yl]azetidine-1-carbonyl]-3H-1,3-benzoxazol-2-one] belongs 0.01 to 100 nM; to `Cc1cc(C)cc(Nc2ncc3c(n2)CN(C2CN(C(=O)c4ccc5[nH]c(=O)oc5c4)C2)C3)c1` [Cpd 3, 6-[3-[2-(3,5-dimethylanilino)-5,7-dihydropyrrolo[3,4-d]pyrimidin-6-yl]azetidine-1-carbonyl]-3H-1,3-benzoxazol-2-one], 0.01 to 100 nM; to `Cc1cc(C)cc(Nc2ncc3c(n2)CN(C2CN(C(=O)c4cccc(C(=O)O)c4)C2)C3)c1` [Cpd 25, 3-[3-[2-(3,5-dimethylanilino)-5,7-dihydropyrrolo[3,4-d]pyrimidin-6-yl]azetidine-1-carbonyl]benzoic acid], > 1000 nM.
`Cc1cc(C)nc(Nc2ncc3c(n2)CN(C2CCN(C(=O)c4ccc5[nH]c(=O)oc5c4)CC2)C3)c1` [Cpd 60, 6-[4-[2-[(4,6-dimethyl-2-pyridyl)amino]-5,7-dihydropyrrolo[3,4-d]pyrimidin-6-yl]piperidine-1-carbonyl]-3H-1,3-benzoxazol-2-one] registered an IC50 of 100 to 500 nM.
As to `Cc1cc(C)cc(Nc2ncc3c(n2)CN(C2CCN(C(=O)c4cnc5[nH]nnc5c4)CC2)C3)c1` [Cpd 66, [4-[2-(3,5-dimethylanilino)-5,7-dihydropyrrolo[3,4-d]pyrimidin-6-yl]-1-piperidyl]-(3H-triazolo[4,5-b]pyridin-6-yl)methanone], the IC50 is 500 to 1000 nM.
With `Cc1cc(C)cc(Nc2ncc3c(n2)CN(C2CN(C(=O)c4cnc5nn[nH]c5c4)C2)C3)c1` [Cpd 67, [3-[2-(3,5-dimethylanilino)-5,7-dihydropyrrolo[3,4-d]pyrimidin-6-yl]azetidin-1-yl]-(1H-triazolo[4,5-b]pyridin-6-yl)methanone], the IC50 is > 1000 nM.
Consider `Cc1cc(C)cc(Nc2ncc3c(n2)CCCN(C2CCN(C(=O)c4cnc5[nH]nnc5c4)CC2)C3)c1` [Cpd 76, [4-[2-(3,5-dimethylanilino)-5,7,8,9-tetrahydropyrimido[5,4-c]azepin-6-yl]-1-piperidyl]-(3H-triazolo[4,5-b]pyridin-6-yl)methanone], for which the IC50 was > 1000 nM.
To `Cc1cc(C)cc(Nc2ncc3c(n2)CN(C2CN(C(=O)c4ccc5[nH]nnc5n4)C2)C3)c1` [Cpd 86, [3-[2-(3,5-dimethylanilino)-5,7-dihydropyrrolo[3,4-d]pyrimidin-6-yl]azetidin-1-yl]-(1H-triazolo[4,5-b]pyridin-5-yl)methanone] belongs 0.01 to 100 nM.
To `Cc1cc(C)cc(Nc2ncc3c(n2)CCN(C2CCN(C(=O)c4ccc5[nH]nnc5c4)[C@@H](C)C2)C3)c1` (stereo partly drawn) [Cpd 96, 1H-benzotriazol-5-yl-[(2S)-4-[2-(3,5-dimethylanilino)-7,8-dihydro-5H-pyrido[4,3-d]pyrimidin-6-yl]-2-methyl-1-piperidyl]methanone] belongs 0.01 to 100 nM; to `Cc1cc(C)cc(Nc2ncc3c(n2)CCN([C@@H]2CCN(C(=O)c4ccc5[nH]nnc5c4)[C@H](C)C2)C3=O)c1` [Cpd 97, 6-[(2R,4R)-1-(1H-benzotriazole-5-carbonyl)-2-methyl-4-piperidyl]-2-(3,5-dimethylanilino)-7,8-dihydropyrido[4,3-d]pyrimidin-5-one], 100 to 500 nM.
